# From patent US20060063794A1, “Method of attenuating graft rejection” (Fujisawa Pharmaceutical Co., Ltd., priority 2004, published 2006)
# “Also recorded” adds a separate entry of the source.
# What was measured:
# [1] = system: human kidney transplant recipients; experiment: Same trial: safety, adverse events, laboratory values, withdrawals; assay type: in vivo; details: for Median serum creatine value: at study end; for Mean hemoglobin level: day 84
# Protocol: FK778 and placebo were administered in a double-blind manner. […] Patients in arm 2 received one dose of 600 mg/day and continued on 75 mg/day. Subsequent doses were adjusted to maintain trough levels of FK778 in the range of 100-200 μg/mL (arm 1) and 10-100 μg/mL (arm 2). Trough levels of FK778 were centrally determined. Doses of FK778 were adjusted according to the recommendations of an independent panel. Treatment of adults of both genders was studied in a multi-center, randomized, double-blind trial. Three groups were studied. Group H was treated with high dose FK778/tarcolimus/steroids; Group L was treated with low dose FK778/tarcolimus/steroids; and Group P was treated with placebo/Tacrolimus/steroids. Tacrolimus was given as an initial dose of 0.2 mg/kg per os divided into two equal doses, one pre-operatively and one post-operatively. Subsequent doses were adjusted to reach target Tacrolimus whole blood trough concentrations of 10-20 ng/mL on Days 0-30, and 5-15 ng/mL on Days 31-84. Methylprednisolone was perioperatively administered at 1000 mg i.v. or less and 125 mg on Day 1. A prednisolone equivalent was given orally at 20 mg from Day 2-14, at 15 mg on Day 15-28, at 10 mg from Day 29-42 and 5 mg from Day 43-84. Oral tablets of FK778/placebo were administered in a double-blind manner. […] This was the maximum permitted daily dose of FK778. […] Dose adaptations were to be performed from day 7 onwards. Subsequent doses were adjusted to maintain plasma trough levels of FK778 in the target ranges of 100-200 μg/mL (H) and 10-100 μg/mL (L). The primary efficacy endpoint was the incidence of AR proven by local biopsy over the first 12 weeks. […] On a continuous basis safety was assessed by patient and graft survival, adverse event monitoring, routine laboratory evaluations and vital signs. Treatment emergent adverse events were coded according to the MedDRA dictionary (version 5.0). All analyses were based on the full analysis set which included all patients randomised who received at least one dose of FK778/placebo (intent-to-treat principle). Decreasing Kaplan-Meier plots were provided. Pair-wise comparisons of the incidence of adverse events between the treatment groups were made using Fisher's exact test.
# CMV = details: animal models; cited from earlier work
smiles,measurement,setting,value
"C#CCC/C(O)=C(\C#N)C(=O)Nc1ccc(C(F)(F)F)cc1 [FK778, (2Z)-2-cyano-3-hydroxy-N-[4-(trifluromethyl)phenyl]-2-hepten-6-ynamide]",Overall assessment of the trial,"[1]; FK778 with Tacrolimus and corticosteroids, renal transplantation","pharmacologically active, well tolerated, and safe; also recorded: pharmacologically active, well tolerated and safe"
same,"Anemias NEC, number of patients",[1]; High level FK778 (group H),21
same,"Angina pectoris, number of patients",[1]; High level FK778 (group H),1
same,Hyperkalemia (%),[1]; High level FK778 (group H),(4.1) %
same,"Hyperkalemia, number of patients",[1]; High level FK778 (group H),2
same,Hypokalemia (%),[1]; High level FK778 (group H),(12.2) %
same,"Hypokalemia, number of patients",[1]; High level FK778 (group H),6
same,Ischemic coronary artery disorders (%),[1]; High level FK778 (group H),(4.1) %
same,"Ischemic coronary artery disorders, number of patients",[1]; High level FK778 (group H),2
same,"Myocard. Ischemia, number of patients",[1]; High level FK778 (group H),1
same,"O. NOS, number of patients",[1]; High level FK778 (group H),1
same,"O. hemorrhagic, number of patients",[1]; High level FK778 (group H),1
same,Oesophagilis (%),[1]; High level FK778 (group H),(8.2) %
same,"Oesophagilis, number of patients",[1]; High level FK778 (group H),4
same,"Reflux O., number of patients",[1]; High level FK778 (group H),2
same,Withdrawn: Adverse event (%),[1]; High level FK778 (group H),(18.4) %
same,"Withdrawn: Adverse event, number of patients",[1]; High level FK778 (group H),9
same,Withdrawn: Death (%),[1]; High level FK778 (group H),(2.0) %
same,"Withdrawn: Death, number of patients",[1]; High level FK778 (group H),1
same,Withdrawn: Graft failure (%),[1]; High level FK778 (group H),(6.1) %
same,"Withdrawn: Graft failure, number of patients",[1]; High level FK778 (group H),3
same,Withdrawn from treatment (%),[1]; High level FK778 (group H) + Tacrolimus/steroids,(28.6) %
same,"Withdrawn from treatment, number of patients","[1]; High level FK778 (group H) + Tacrolimus/steroids, N=49",14
same,"Anemias NEC, number of patients",[1]; Low level FK778 (group L),17
same,"Angina pectoris, number of patients",[1]; Low level FK778 (group L),5
same,Hyperkalemia (%),[1]; Low level FK778 (group L),(11.1) %
same,"Hyperkalemia, number of patients",[1]; Low level FK778 (group L),6
same,Hypokalemia (%),[1]; Low level FK778 (group L),(0.0) %
same,"Hypokalemia, number of patients",[1]; Low level FK778 (group L),0
same,Ischemic coronary artery disorders (%),[1]; Low level FK778 (group L),(13.0) %
same,"Ischemic coronary artery disorders, number of patients",[1]; Low level FK778 (group L),7
same,"Myocard. Infarction, number of patients",[1]; Low level FK778 (group L),1
same,"Myocard. Ischemia, number of patients",[1]; Low level FK778 (group L),1
same,Oesophagilis (%),[1]; Low level FK778 (group L),(0.0) %
same,"Oesophagilis, number of patients",[1]; Low level FK778 (group L),0
same,Withdrawn: Adverse event (%),[1]; Low level FK778 (group L),(13.0) %
same,"Withdrawn: Adverse event, number of patients",[1]; Low level FK778 (group L),7
same,Withdrawn: Graft failure (%),[1]; Low level FK778 (group L),(5.6) %
same,"Withdrawn: Graft failure, number of patients",[1]; Low level FK778 (group L),3
same,Withdrawn from treatment (%),[1]; Low level FK778 (group L) + Tacrolimus/steroids,(25.9) %
same,"Withdrawn from treatment, number of patients","[1]; Low level FK778 (group L) + Tacrolimus/steroids, N=54",14
same,"Withdrawn: Death, number of patients","[1]; Low level FK778 (group L), one patient died the day after withdrawal",0
same,Reversibility of anemia,[1]; after cessation of FK778 treatment,reversible after cessation of FK778 treatment; also recorded: quickly reversed after cessation of FK778 treatment
same,Systolic and diastolic blood pressure values,[1]; both FK778 arms,trend towards lower
same,"Mean total cholesterol and mean LDL-cholesterol levels, lower compared to placebo group","[1]; both FK778 groups, during the treatment phase",~20%
same,Bilirubin levels,[1]; group H,slightly elevated
same,Median serum creatine value,[1]; group H,138 µmol/L
same,Mean hemoglobin level,[1]; group H,102.6 g/L
same,Patients who died during the study,"[1]; group H, high level FK778",one
same,Median serum creatine value,[1]; group L,149 µmol/L
same,Mean hemoglobin level,[1]; group L,119 g/L
same,Patients who died during the study,"[1]; group L, low level FK778",one
same,Liver enzyme values,[1]; throughout the study,no changes
same,Effect on CMV disease,CMV,attenuates CMV disease
